Assay results as given in paper PMC7573825 (Frontiers in Pharmacology, 2020).
Read-outs that look alike come from different tables or passages of the source.

Experiments:
[1] = set-up: method as in 3 sources, one per row (each row's own in cited_ref): ref Adane et al., 2015; Lin et al., 2016 ||| ref Ji et al., 2018 ||| ref Lin et al., 2019; details: ref Adane et al., 2015, Lin et al., 2016, cited from earlier work
[2] = test system: most sensitive bacteria; set-up: method as in Bhongsatiern et al., 2015; Bruniera et al., 2015; details: ref Bhongsatiern et al., 2015, Bruniera et al.; cited from earlier work
[3] = Population pharmacokinetic modeling (NONMEM, one-compartment) of intravenous vancomycin from TDM trough plasma concentrations in kidney transplant recipients; details: for Typical value of V / Typical value of CL: intravenous vancomycin, 56 adult kidney transplant recipients
Method: All these patients adopted routine therapeutic drug monitoring. The transplant surgeries were performed between March 8 and June 21 in 2017. […] The glomerular filtration rate (GFR) was estimated from the sCr according to the published formula [GFR (ml min^-1): GFR = 2.104*sCr(μM) - 1.154*age - 1.154*(0.742 for female)*1.233(correction for Chinese)]
Other concomitantly used drugs, such as prednisone, mycophenolate mofetil, cyclosporine, and tacrolimus were administered orally or intravenously once or twice a day, and their usages and doses were based on clinical necessity and safety.
The venous blood was centrifuged at 1,000 g for 4 min and a volume of 100 ml supernatant plasma was mixed with 100 ml of 5% perchloric acid solution. The mixture was fully vortex blended and then centrifuged at 14,000 g for 5 min. […] AHC-C18 column (250 mm × 4.6 mm, 5 μm; ShimadzuCo., Japan), a precolumn (10 mm × 4 mm, 5 μm; ShimadzuCo.), and a PDA detector (ShimadzuCo.) were used in the workstation. The mobile phase was acetonitrile in 0.01 M KH2PO4 solution (7:93 in volume), the flow rate was 0.5 ml min^-1, the column temperature was 30°C, and the detection wavelength was 236 nm. […] After using the same parallel method for sample preparation as mentioned above, the standard samples were simultaneously injected with the samples for testing.
Data processing and pharmacokinetic analysis were carried out with the nonlinear mixed-effects model program (NONMEM®, Version 7.4; Icon Inc, PA, USA), compiled with GFortran (Version 4.9.2; http://www.gfortran.org). The output was explored by the R package (Version 3.3.1; http://www.r-project.org) and Xpose (Version 4.5.3; http://xpose.sourceforge.net). The first-order conditional estimation method with η-ε interaction (FOCE-I) was used throughout the model-building procedure.
First, we established the base compartment model. For the statistical modeling, exponential model was used as the inter-individual variation model:
For the residual variation modeling, additive, proportional, and mixed models were applied. The additive and proportional mixed model is as follows:
In the forward model building step, the covariates were assessed for their suitability depending on the changes in the objective function values (OFV) and the inter-individual variations and residual variations. Taking an example with df = 1, when the decrease of OFV is more than 3.84 (P < 0.05, df = 1), the introduced factor can be considered as a significant covariate for the parameter model. During the backward analysis, a covariate was removed from the model every time, except when the OFV value increased by more than 6.63 units (P < 0.01, df = 1).
For the effects of continuous variables on pharmacokinetic parameters, linear, exponential, and power function models were used. The linear function model was:

## CN[C@H](CC(C)C)C(=O)N[C@H]1C(=O)N[C@@H](CC(N)=O)C(=O)N[C@H]2C(=O)N[C@H]3C(=O)N[C@H](C(=O)N[C@H](C(=O)O)c4cc(O)cc(O)c4-c4cc3ccc4O)[C@H](O)c3ccc(c(Cl)c3)Oc3cc2cc(c3O[C@@H]2O[C@H](CO)[C@@H](O)[C@H](O)[C@H]2O[C@H]2C[C@](C)(N)[C@H](O)[C@H](C)O2)Oc2ccc(cc2Cl)[C@H]1O [vancomycin]
[1]; adult Chinese patients with post-craniotomy meningitis, typical creatinine clearance rate 104.7 ml/min
  Vancomycin clearance: 7.56 L/h
[1]; patients with augmented renal clearance
  Vancomycin clearance: 8.52 L/h
[2]
  minimum inhibitory concentration (MIC): 0.1 to 2 µg/mL
[3]; base model, one-compartment, 195 plasma Cmin
  Typical value of V: 45.5 L
[3]; base model, one-compartment, 195 plasma Cmin, HPLC, FOCE-I
  Typical value of CL: 1.84 L/h
[3]; final model, CL=2.08×[(WT/59.95)^1.07]×[(GFR/36.67)^0.698], 195 plasma Cmin
  Typical value of CL: 2.08 L/h
[3]; final model, V=63.2×[(WT/59.95)^0.934]
  Typical value of V: 63.2 L
[3]; final model, power function exponent
  Influential factor for WT on V (θ3): 0.934
